# Experimental data taken from article PMC8489232, “Structural and catalytic characterization of Blastochloris viridis and Pseudomonas aeruginosa homospermidine synthases supports the essential role of cation–π interaction” (Acta Crystallographica. Section D, Structural Biology, 2021).
# T1: PaHSS (Pseudomonas aeruginosa, UniProt Q6X2Y9)
# T1 construct: gene CL-17; full length, codon-optimized synthetic gene in pETM-14, E. coli BL21(DE3) Gold; N-terminal 6xHis tag removed with HRV3C protease; 52 kDa monomer in solution (SEC-MALS); crystalline dimers
# T1 sequence (Q6X2Y9 1-469): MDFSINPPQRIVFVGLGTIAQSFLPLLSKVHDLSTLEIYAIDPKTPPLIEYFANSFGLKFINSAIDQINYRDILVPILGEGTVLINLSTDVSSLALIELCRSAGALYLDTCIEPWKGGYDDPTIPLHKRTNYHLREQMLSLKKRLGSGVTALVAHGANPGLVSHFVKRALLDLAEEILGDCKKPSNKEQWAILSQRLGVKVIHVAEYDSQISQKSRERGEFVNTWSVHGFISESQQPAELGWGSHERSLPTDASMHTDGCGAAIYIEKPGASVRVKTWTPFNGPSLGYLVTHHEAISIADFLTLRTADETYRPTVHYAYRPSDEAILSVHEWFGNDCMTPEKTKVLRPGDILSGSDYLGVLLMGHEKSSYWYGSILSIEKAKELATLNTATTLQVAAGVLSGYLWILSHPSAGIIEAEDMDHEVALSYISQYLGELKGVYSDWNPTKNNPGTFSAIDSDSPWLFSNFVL
# Experiments:
# PaHSS = target: T1, PaHSS; assay: X-ray crystal structure, […] A; type: binding
# BvHSS [1] = target: T2, BvHSS (Blastochloris viridis, UniProt O32323, W229F); assay: X-ray crystal structure, […] A; type: binding; conditions: 1.3 mM NAD+ in protein solution; both subunits; PUT soak, no PUT modelled
# T2 construct: gene hss; full length in pETM-14, E. coli BL21(DE3) Gold; dimer, 106 kDa theoretical
# BvHSS [2] = target: T3, BvHSS (Blastochloris viridis, UniProt O32323, W229A); assay: X-ray crystal structure, […] A; type: binding; conditions: 1.3 mM NAD+ in protein solution; both subunits; PUT soak
# T3 construct: gene hss; full length in pETM-14, E. coli BL21(DE3) Gold; dimer, 106 kDa theoretical
# BvHSS [3] = target: T4, BvHSS (Blastochloris viridis, UniProt O32323, E210Q); assay: X-ray crystal structure, […] A; type: binding; conditions: 1.3 mM NAD+ in protein solution; both subunits
# T4 construct: gene hss; full length in pETM-14, E. coli BL21(DE3) Gold; dimer, 106 kDa theoretical
# BvHSS [4] = target: T5, BvHSS (Blastochloris viridis, UniProt O32323, E210A); assay: X-ray crystal structure, […] A; type: binding; conditions: 1.3 mM NAD+ in protein solution; both subunits
# T5 construct: gene hss; full length in pETM-14, E. coli BL21(DE3) Gold; dimer, 106 kDa theoretical
# BvHSS [5] = target: T6, BvHSS (Blastochloris viridis, UniProt O32323, W229E); assay: X-ray crystal structure, […] A; type: binding; conditions: 1.3 mM NAD+ in protein solution; both subunits; PUT soak, no PUT modelled
# T6 construct: gene hss; full length in pETM-14, E. coli BL21(DE3) Gold; dimer, 106 kDa theoretical
# BvHSS [6] = target: T7, BvHSS (Blastochloris viridis, UniProt O32323, E117Q); assay: X-ray crystal structure, […] A; type: binding; conditions: 1.3 mM NAD+ in protein solution; both subunits; two ribose conformers
# T7 construct: gene hss; full length in pETM-14, E. coli BL21(DE3) Gold; dimer, 106 kDa theoretical
# [7] = target: the molecule itself; assay: SEC-MALS; HPLC-MALS of the purified proteins in solution; data not shown; method in Supplementary Section S1
# [8] = target: the molecule itself; assay: crystal structure; BvHSS variants, hanging-drop vapor diffusion at 291 K, sodium acetate pH 4.6-4.8, PEG 10 000, with NAD+ and agmatine sulfate; space group P22(1)2(1), two molecules in the asymmetric unit
molecule,measurement,setting,value
"NCCCCN [PUT, 1,4-diaminobutane]","X-ray crystal structure, 2.42 A","PaHSS; PUT not added, assumed co-purified from E. coli, active site of chains A, C and E, NAD+ present","molecules A, C and E additionally contain a PUT molecule in the active site"
"NC(=O)c1ccc[n+]([C@@H]2O[C@H](COP(=O)(O)OP(=O)(O)OC[C@H]3O[C@@H](n4cnc5c(N)ncnc54)[C@H](O)[C@@H]3O)[C@@H](O)[C@H]2O)c1 [NAD^+, nicotinamide adenine dinucleotide]","X-ray crystal structure, 2.08 A",BvHSS [1],with each subunit containing an NAD^+ molecule in the binding pocket
same,"X-ray crystal structure, 2.00 A",BvHSS [2],with each subunit containing an NAD^+ molecule in the binding pocket
same,"X-ray crystal structure, 2.42 A","PaHSS; 1.3 mM NAD+ in protein solution, all six chains",All six PaHSS molecules contain an NAD^+ molecule in their binding pockets
same,"X-ray crystal structure, 1.93 A",BvHSS [3],with each subunit containing an NAD^+ molecule in the binding pocket
same,"X-ray crystal structure, 1.75 A",BvHSS [4],with each subunit containing an NAD^+ molecule in the binding pocket
same,"X-ray crystal structure, 2.76 A",BvHSS [5],with each subunit containing an NAD^+ molecule in the binding pocket
same,"X-ray crystal structure, 1.77 A",BvHSS [6],with each subunit containing an NAD^+ molecule in the binding pocket
"Blastochloris viridis homospermidine synthase, wild type (enzyme, also called BvHSS; wild-type BvHSS; source: E. coli BL21(DE3) Gold, purified (as described previously, Krossa et al., 2016)) MTDWPVYHRIDGPIVMIGFGSIGRGTLPLIERHFAFDRSKLVVIDPSDEARKLAEARGVRFIQQAVTRDNYRELLVPLLTAGPGQGFCVNLSVDTSSLDIMELARENGALYIDTVVEPWLGFYFDPDLKPEARSNYALRETVLAARRNKPGGTTAVSCCGANPGMVSWFVKQALVNLAADLGVTGEEPTTREEWARLAMDLGVKGIHIAERDTQRASFPKPFDVFVNTWSVEGFVSEGLQPAELGWGTFERWMPDNARGHDSGCGAGIYLLQPGANTRVRSWTPTAMAQYGFLVTHNESISIADFLTVRDAAGQAVYRPTCHYAYHPCNDAVLSLHEMFGSGKRQSDWRILDETEIVDGIDELGVLLYGHGKNAYWYGSQLSIEETRRIAPDQNATGLQVSSAVLAGMVWALENPNAGIVEADDLDFRRCLEVQTPYLGPVVGVYTDWTPLAGRPGLFPEDIDTSDPWQFRNVLVRD",stoichiometry N,[7],2
"Blastochloris viridis homospermidine synthase variant E210A (enzyme, homospermidine synthase of Blastochloris viridis, UniProtKB O32323, single-residue variant made by site-directed mutagenesis of BvHSS pETM-14; Same construct as m2 with one substitution; also called BvHSS (E210A); BvHSS E210A; source: E. coli BL21(DE3) Gold, purified (as described previously, Krossa et al., 2016)) MTDWPVYHRIDGPIVMIGFGSIGRGTLPLIERHFAFDRSKLVVIDPSDEARKLAEARGVRFIQQAVTRDNYRELLVPLLTAGPGQGFCVNLSVDTSSLDIMELARENGALYIDTVVEPWLGFYFDPDLKPEARSNYALRETVLAARRNKPGGTTAVSCCGANPGMVSWFVKQALVNLAADLGVTGEEPTTREEWARLAMDLGVKGIHIAARDTQRASFPKPFDVFVNTWSVEGFVSEGLQPAELGWGTFERWMPDNARGHDSGCGAGIYLLQPGANTRVRSWTPTAMAQYGFLVTHNESISIADFLTVRDAAGQAVYRPTCHYAYHPCNDAVLSLHEMFGSGKRQSDWRILDETEIVDGIDELGVLLYGHGKNAYWYGSQLSIEETRRIAPDQNATGLQVSSAVLAGMVWALENPNAGIVEADDLDFRRCLEVQTPYLGPVVGVYTDWTPLAGRPGLFPEDIDTSDPWQFRNVLVRD",binding result,[8],binds
"Blastochloris viridis homospermidine synthase variant E210Q (enzyme, homospermidine synthase of Blastochloris viridis, UniProtKB O32323, single-residue variant made by site-directed mutagenesis of BvHSS pETM-14; Same construct as m2 with one substitution; also called BvHSS (E210Q); BvHSS E210Q; source: E. coli BL21(DE3) Gold, purified (as described previously, Krossa et al., 2016)) MTDWPVYHRIDGPIVMIGFGSIGRGTLPLIERHFAFDRSKLVVIDPSDEARKLAEARGVRFIQQAVTRDNYRELLVPLLTAGPGQGFCVNLSVDTSSLDIMELARENGALYIDTVVEPWLGFYFDPDLKPEARSNYALRETVLAARRNKPGGTTAVSCCGANPGMVSWFVKQALVNLAADLGVTGEEPTTREEWARLAMDLGVKGIHIAQRDTQRASFPKPFDVFVNTWSVEGFVSEGLQPAELGWGTFERWMPDNARGHDSGCGAGIYLLQPGANTRVRSWTPTAMAQYGFLVTHNESISIADFLTVRDAAGQAVYRPTCHYAYHPCNDAVLSLHEMFGSGKRQSDWRILDETEIVDGIDELGVLLYGHGKNAYWYGSQLSIEETRRIAPDQNATGLQVSSAVLAGMVWALENPNAGIVEADDLDFRRCLEVQTPYLGPVVGVYTDWTPLAGRPGLFPEDIDTSDPWQFRNVLVRD",binding result,[8],binds
"Blastochloris viridis homospermidine synthase variant W229A (enzyme, homospermidine synthase of Blastochloris viridis, UniProtKB O32323, single-residue variant made by site-directed mutagenesis of BvHSS pETM-14; Same construct as m2 with one substitution; also called BvHSS (W229A); BvHSS W229A; source: E. coli BL21(DE3) Gold, purified (as described previously, Krossa et al., 2016)) MTDWPVYHRIDGPIVMIGFGSIGRGTLPLIERHFAFDRSKLVVIDPSDEARKLAEARGVRFIQQAVTRDNYRELLVPLLTAGPGQGFCVNLSVDTSSLDIMELARENGALYIDTVVEPWLGFYFDPDLKPEARSNYALRETVLAARRNKPGGTTAVSCCGANPGMVSWFVKQALVNLAADLGVTGEEPTTREEWARLAMDLGVKGIHIAERDTQRASFPKPFDVFVNTASVEGFVSEGLQPAELGWGTFERWMPDNARGHDSGCGAGIYLLQPGANTRVRSWTPTAMAQYGFLVTHNESISIADFLTVRDAAGQAVYRPTCHYAYHPCNDAVLSLHEMFGSGKRQSDWRILDETEIVDGIDELGVLLYGHGKNAYWYGSQLSIEETRRIAPDQNATGLQVSSAVLAGMVWALENPNAGIVEADDLDFRRCLEVQTPYLGPVVGVYTDWTPLAGRPGLFPEDIDTSDPWQFRNVLVRD",binding result,[8],binds
"Blastochloris viridis homospermidine synthase variant W229E (enzyme, homospermidine synthase of Blastochloris viridis, UniProtKB O32323, single-residue variant made by site-directed mutagenesis of BvHSS pETM-14; Same construct as m2 with one substitution; also called BvHSS (W229E); BvHSS W229E; source: E. coli BL21(DE3) Gold, purified (as described previously, Krossa et al., 2016)) MTDWPVYHRIDGPIVMIGFGSIGRGTLPLIERHFAFDRSKLVVIDPSDEARKLAEARGVRFIQQAVTRDNYRELLVPLLTAGPGQGFCVNLSVDTSSLDIMELARENGALYIDTVVEPWLGFYFDPDLKPEARSNYALRETVLAARRNKPGGTTAVSCCGANPGMVSWFVKQALVNLAADLGVTGEEPTTREEWARLAMDLGVKGIHIAERDTQRASFPKPFDVFVNTESVEGFVSEGLQPAELGWGTFERWMPDNARGHDSGCGAGIYLLQPGANTRVRSWTPTAMAQYGFLVTHNESISIADFLTVRDAAGQAVYRPTCHYAYHPCNDAVLSLHEMFGSGKRQSDWRILDETEIVDGIDELGVLLYGHGKNAYWYGSQLSIEETRRIAPDQNATGLQVSSAVLAGMVWALENPNAGIVEADDLDFRRCLEVQTPYLGPVVGVYTDWTPLAGRPGLFPEDIDTSDPWQFRNVLVRD",binding result,[8],binds
"Blastochloris viridis homospermidine synthase variant E117Q (enzyme, homospermidine synthase of Blastochloris viridis, UniProtKB O32323, single-residue variant made by site-directed mutagenesis of BvHSS pETM-14; Same construct as m2 with one substitution; also called BvHSS (E117Q); BvHSS E117Q; source: E. coli BL21(DE3) Gold, purified (as described previously, Krossa et al., 2016)) MTDWPVYHRIDGPIVMIGFGSIGRGTLPLIERHFAFDRSKLVVIDPSDEARKLAEARGVRFIQQAVTRDNYRELLVPLLTAGPGQGFCVNLSVDTSSLDIMELARENGALYIDTVVQPWLGFYFDPDLKPEARSNYALRETVLAARRNKPGGTTAVSCCGANPGMVSWFVKQALVNLAADLGVTGEEPTTREEWARLAMDLGVKGIHIAERDTQRASFPKPFDVFVNTWSVEGFVSEGLQPAELGWGTFERWMPDNARGHDSGCGAGIYLLQPGANTRVRSWTPTAMAQYGFLVTHNESISIADFLTVRDAAGQAVYRPTCHYAYHPCNDAVLSLHEMFGSGKRQSDWRILDETEIVDGIDELGVLLYGHGKNAYWYGSQLSIEETRRIAPDQNATGLQVSSAVLAGMVWALENPNAGIVEADDLDFRRCLEVQTPYLGPVVGVYTDWTPLAGRPGLFPEDIDTSDPWQFRNVLVRD",binding result,[8],binds
"Blastochloris viridis homospermidine synthase variant W229F (enzyme, homospermidine synthase of Blastochloris viridis, UniProtKB O32323, single-residue variant made by site-directed mutagenesis of BvHSS pETM-14; Same construct as m2 with one substitution; also called BvHSS (W229F); BvHSS W229F; source: E. coli BL21(DE3) Gold, purified (as described previously, Krossa et al., 2016)) MTDWPVYHRIDGPIVMIGFGSIGRGTLPLIERHFAFDRSKLVVIDPSDEARKLAEARGVRFIQQAVTRDNYRELLVPLLTAGPGQGFCVNLSVDTSSLDIMELARENGALYIDTVVEPWLGFYFDPDLKPEARSNYALRETVLAARRNKPGGTTAVSCCGANPGMVSWFVKQALVNLAADLGVTGEEPTTREEWARLAMDLGVKGIHIAERDTQRASFPKPFDVFVNTFSVEGFVSEGLQPAELGWGTFERWMPDNARGHDSGCGAGIYLLQPGANTRVRSWTPTAMAQYGFLVTHNESISIADFLTVRDAAGQAVYRPTCHYAYHPCNDAVLSLHEMFGSGKRQSDWRILDETEIVDGIDELGVLLYGHGKNAYWYGSQLSIEETRRIAPDQNATGLQVSSAVLAGMVWALENPNAGIVEADDLDFRRCLEVQTPYLGPVVGVYTDWTPLAGRPGLFPEDIDTSDPWQFRNVLVRD",binding result,[8],binds
